Laboratory results as given in US10023593B2, “ALK kinase inhibitor, and preparation method and uses thereof” (BEIJING PEARL BIOTECHNOLOGY LIMITED LIABILITY COMPANY, priority 2014, dated 2018).

Columns and labels:
[1] = target: T1, L1196M mutant ALK kinase (Homo sapiens, UniProt Q9UM73, L1196M); assay: HTRF KinEASE-TK assay, inhibitory activity on L1196M mutant ALK kinase; format: biochemical; conditions: L1196M mutant ALK 1 ng/μl, substrate 1 μM, ATP 5 μM, 30° C. 35 minutes, read-out: Inhibition on ALK kinases (L1196M mutant), IC50
T1 construct: purchased Sino-US Crown Bioscience, Inc. batch number ALKm_20110923
T1 sequence (Q9UM73 19-1620 L1196M): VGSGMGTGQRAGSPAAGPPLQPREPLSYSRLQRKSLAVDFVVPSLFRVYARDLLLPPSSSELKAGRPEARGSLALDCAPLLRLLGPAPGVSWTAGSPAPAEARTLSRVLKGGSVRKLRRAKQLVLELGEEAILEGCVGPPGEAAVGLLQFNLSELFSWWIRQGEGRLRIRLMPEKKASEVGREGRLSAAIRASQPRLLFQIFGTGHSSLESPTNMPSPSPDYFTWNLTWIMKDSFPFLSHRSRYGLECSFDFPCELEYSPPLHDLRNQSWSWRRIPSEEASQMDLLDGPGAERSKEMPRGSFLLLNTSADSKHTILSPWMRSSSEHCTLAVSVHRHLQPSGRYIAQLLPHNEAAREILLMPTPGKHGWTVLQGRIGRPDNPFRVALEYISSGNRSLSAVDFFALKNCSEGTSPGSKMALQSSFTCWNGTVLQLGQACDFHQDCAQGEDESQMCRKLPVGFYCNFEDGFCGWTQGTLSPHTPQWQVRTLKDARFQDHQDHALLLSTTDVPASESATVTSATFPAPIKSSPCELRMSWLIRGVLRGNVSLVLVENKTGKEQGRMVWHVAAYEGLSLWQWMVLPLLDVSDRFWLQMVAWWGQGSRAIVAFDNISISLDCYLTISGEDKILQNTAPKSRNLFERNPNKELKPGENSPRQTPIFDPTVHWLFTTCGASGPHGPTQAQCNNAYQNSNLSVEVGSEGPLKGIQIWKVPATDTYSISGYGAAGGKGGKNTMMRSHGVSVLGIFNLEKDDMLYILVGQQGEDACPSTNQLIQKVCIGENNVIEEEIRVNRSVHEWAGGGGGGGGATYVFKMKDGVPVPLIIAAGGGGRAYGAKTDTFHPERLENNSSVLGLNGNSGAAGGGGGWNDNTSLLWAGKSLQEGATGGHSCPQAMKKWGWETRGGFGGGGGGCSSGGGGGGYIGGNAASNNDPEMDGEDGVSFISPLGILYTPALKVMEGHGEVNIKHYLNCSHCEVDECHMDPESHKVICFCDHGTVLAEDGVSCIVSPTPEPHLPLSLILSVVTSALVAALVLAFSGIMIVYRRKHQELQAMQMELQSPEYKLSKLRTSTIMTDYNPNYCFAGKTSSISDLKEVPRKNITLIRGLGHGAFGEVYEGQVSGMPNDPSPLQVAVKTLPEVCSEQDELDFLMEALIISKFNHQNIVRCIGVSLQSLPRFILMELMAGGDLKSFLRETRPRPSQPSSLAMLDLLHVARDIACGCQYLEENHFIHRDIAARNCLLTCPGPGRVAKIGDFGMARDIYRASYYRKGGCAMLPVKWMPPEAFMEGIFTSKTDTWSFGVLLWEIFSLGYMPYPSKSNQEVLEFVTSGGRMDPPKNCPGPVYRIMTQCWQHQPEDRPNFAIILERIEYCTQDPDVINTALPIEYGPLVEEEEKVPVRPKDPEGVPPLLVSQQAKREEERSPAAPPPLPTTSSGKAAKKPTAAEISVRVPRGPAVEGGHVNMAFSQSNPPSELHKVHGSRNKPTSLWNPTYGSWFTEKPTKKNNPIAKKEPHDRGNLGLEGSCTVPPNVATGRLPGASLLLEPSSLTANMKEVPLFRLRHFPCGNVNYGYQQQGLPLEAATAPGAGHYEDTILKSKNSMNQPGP
Method in brief: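 HTRF TK assay: mutant kinase 1 ng/μl, substrate 1 μM, ATP 5 μM, 5 mM MgCl2, 1 mM DTT, 1% DMSO, 35 min at 30 °C. 665/615 ratio read; inhibition normalised to no-compound and 10.4 μM LDK-378 controls; IC50 from curve fit.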

[2] = target: cytochrome P450 2C19 (Homo sapiens, UniProt P33261); assay: Inhibitory activity on cytochrome P450 2C19; format: in vitro ADME; conditions: no significant inhibition
Chain of cytochrome P450 2C19 (P33261 whole entry): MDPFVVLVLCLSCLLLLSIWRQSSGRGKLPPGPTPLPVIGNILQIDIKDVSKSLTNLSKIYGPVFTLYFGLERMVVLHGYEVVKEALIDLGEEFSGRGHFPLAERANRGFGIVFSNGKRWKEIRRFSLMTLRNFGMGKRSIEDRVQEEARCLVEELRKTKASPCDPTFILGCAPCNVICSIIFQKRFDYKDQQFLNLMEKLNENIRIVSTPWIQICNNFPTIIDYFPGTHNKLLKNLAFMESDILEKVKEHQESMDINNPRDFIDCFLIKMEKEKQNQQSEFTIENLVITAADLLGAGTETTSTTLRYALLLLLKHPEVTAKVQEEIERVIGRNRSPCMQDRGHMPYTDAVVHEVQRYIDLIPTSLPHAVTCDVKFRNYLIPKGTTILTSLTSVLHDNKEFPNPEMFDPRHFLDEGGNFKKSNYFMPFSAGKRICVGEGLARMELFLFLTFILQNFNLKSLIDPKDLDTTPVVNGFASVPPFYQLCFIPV

[3] = test system: NCI-H2228 cell line; assay: CellTiter-Glo cell proliferation inhibition on NCI-H2228 cell line; format: cell-based; conditions: Homo sapiens, NCI-H2228 cells, 5000 cells/well, 4 days drug treatment
Method in brief: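 NCI-H2228 cells, 5000/well in RPMI-1640 + 10% FBS, treated with compounds 2 h after seeding (0.5% DMSO final) for 4 days at 37° C. Viability by CellTiter-Glo luminescence; inhibition relative to DMSO control, IC50 from curve fit.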

[4] = target: cytochrome P450 3A4 (Homo sapiens, UniProt P08684); assay: Inhibitory activity on cytochrome P450 3A4; format: in vitro ADME; conditions: no significant inhibition
Chain of cytochrome P450 3A4 (P08684 whole entry): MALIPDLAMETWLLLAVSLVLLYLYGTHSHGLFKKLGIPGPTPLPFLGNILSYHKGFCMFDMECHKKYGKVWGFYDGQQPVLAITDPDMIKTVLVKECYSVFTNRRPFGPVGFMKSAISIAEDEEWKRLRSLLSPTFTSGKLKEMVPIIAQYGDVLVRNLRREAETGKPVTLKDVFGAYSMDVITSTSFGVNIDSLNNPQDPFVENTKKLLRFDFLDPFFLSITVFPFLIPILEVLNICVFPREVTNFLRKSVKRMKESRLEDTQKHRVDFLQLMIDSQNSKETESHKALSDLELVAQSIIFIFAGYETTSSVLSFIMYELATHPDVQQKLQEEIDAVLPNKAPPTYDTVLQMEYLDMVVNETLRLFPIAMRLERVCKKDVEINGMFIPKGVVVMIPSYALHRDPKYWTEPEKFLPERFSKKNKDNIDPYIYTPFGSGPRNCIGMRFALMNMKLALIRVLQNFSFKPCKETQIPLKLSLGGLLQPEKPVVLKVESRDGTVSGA

[5] = target: cytochrome P450 2C9 (Homo sapiens, UniProt P11712); assay: Inhibitory activity on cytochrome P450 2C9; format: in vitro ADME; conditions: no significant inhibition
Chain of cytochrome P450 2C9 (P11712 whole entry): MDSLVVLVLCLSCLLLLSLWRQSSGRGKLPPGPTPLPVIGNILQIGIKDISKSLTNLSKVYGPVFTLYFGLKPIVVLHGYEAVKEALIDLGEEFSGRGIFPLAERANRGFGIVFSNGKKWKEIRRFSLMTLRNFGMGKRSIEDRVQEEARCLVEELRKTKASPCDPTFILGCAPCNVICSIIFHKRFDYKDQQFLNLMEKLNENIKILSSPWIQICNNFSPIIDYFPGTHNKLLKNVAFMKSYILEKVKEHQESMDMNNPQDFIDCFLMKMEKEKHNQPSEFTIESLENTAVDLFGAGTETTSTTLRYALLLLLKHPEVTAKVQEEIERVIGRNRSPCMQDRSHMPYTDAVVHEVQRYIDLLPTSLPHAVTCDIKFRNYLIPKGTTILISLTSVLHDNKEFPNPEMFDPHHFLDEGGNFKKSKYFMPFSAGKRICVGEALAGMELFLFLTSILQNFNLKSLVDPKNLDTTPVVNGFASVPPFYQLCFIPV

SMILES	IC50 [1]	IC50 [2]	IC50 ([3]; NCI-H2228, 96 h)	IC50 [4]	IC50 [5]	IC50 ([3]; 96 h)
CC(C)CS(=O)(=O)c1nn(C)cc1Nc1nc(Nc2ccc(C3CCN(C)CC3)cc2OC2CC2)ncc1Cl [Final product 43]	12 nM	> 10000 nM	125 nM	> 10000 nM	> 10000 nM	–
CC(C)S(=O)(=O)c1nn(C)cc1Nc1nc(Nc2cc(Cl)c(C3CCN(C)CC3)cc2OC2CC2)ncc1Cl [Final product 47]	10 nM	> 10000 nM	103 nM	> 10000 nM	> 10000 nM	–
Cc1cc(Nc2ncc(Cl)c(Nc3cn(C)nc3S(=O)(=O)C(C)C)n2)c(OC2CC2)cc1C1CCN(C2COC2)CC1 [Final product 156]	10 nM	> 10000 nM	44 nM	> 10000 nM	> 10000 nM	–
CC(=O)N1CCC(c2cc(OC3CC3)c(Nc3ncc(Cl)c(Nc4cn(C)nc4S(=O)(=O)C(C)C)n3)cc2C)CC1 [Final product 160, 1-acetyl-4-(4-(5-chloro-4-(3-(isopropylsulfonyl)-1-methyl-1H-pyrazol-4-amino)pyrimidin-2-amine)-5-cyclopropoxy-2-methylphenyl)piperidine]	9 nM	> 10000 nM	35 nM	> 10000 nM	> 10000 nM	–
Cc1cc(Nc2ncc(Cl)c(Nc3cn(C)nc3S(=O)(=O)C(C)C)n2)c(OC2CC2)cc1C1CCN(CCO)CC1 [Final product 133, 2-(4-(4-(5-chloro-4-(3-(isopropylsulfonyl)-1-methyl-1H-pyrazol-4-amino)pyrimidin-2-amino)-5-cyclopropoxy-2-methylphenyl)piperidin-1-yl) ethanol]	6 nM	> 10000 nM	–	> 10000 nM	> 10000 nM	41 nM
CC(C)S(=O)(=O)c1nn(C)cc1Nc1nc(Nc2ccc(C3CCN(S(C)(=O)=O)C3)cc2OC2CC2)ncc1Cl (stereo not shown) [Final product 172]	9 nM	–	111 nM	–	–	–
CCN(CC)[C@H]1CC[C@H](c2cc(OC3CC3)c(Nc3ncc(Cl)c(Nc4cn(C)nc4S(=O)(=O)CC(C)C)n3)cc2C)CC1 [Final product 178]	17 nM	–	101 nM	–	–	–
CC(C)S(=O)(=O)c1nn(C)cc1Nc1nc(Nc2cc(C#N)c(C3CCNCC3)cc2OC2CC2)ncc1Cl [Final product 29]	7 nM	–	159 nM	–	–	–
Cc1cc(Nc2ncc(Cl)c(Nc3cn(C)nc3S(=O)(=O)C(C)C)n2)c(OC2CC2)cc1C1=CCNCC1 [Final product 25]	5 nM	–	190 nM	–	–	–
Cc1cc(Nc2ncc(Cl)c(Nc3cn(C)nc3S(=O)(=O)C(C)C)n2)c(OC2CC2)cc1C1CCN(C=O)CC1 [Final product 159, 4-(4-(5-chloro-4-(3-(isopropylsulfonyl)-1-methyl-1H-pyrazol-4-amino)pyrimidin-2-amino)-5-cyclopropoxy-2-methylphenyl)piperidin-1-formaldehyde]	9 nM	–	43 nM	–	–	–
Cc1cc(Nc2ncc(Cl)c(Nc3cn(C)nc3S(=O)(=O)C(C)C)n2)c(OC2CC2)cc1C1CCNC1 (stereo not shown) [Final product 26]	6 nM	–	217 nM	–	–	–
CC(C)CS(=O)(=O)c1nn(C)cc1Nc1nc(Nc2ccc(C3CCNCC3)cc2OC2CC2)ncc1Cl [Final product 17]	13 nM	–	278 nM	–	–	–

More lines, in order of falling IC50 [1], values ahead:

IC50 [1]	IC50 [2]	IC50 ([3]; NCI-H2228, 96 h)	IC50 [4]	IC50 [5]	SMILES	IC50 ([3]; 96 h)
95 nM	–	381 nM	–	–	Cc1cc(Nc2ncc(Cl)c(Nc3cn(C)nc3S(=O)(=O)C(C)C)n2)c(OC2CC2)cc1C1CN(S(C)(=O)=O)C1 [Final product 170]	–
39 nM	–	641 nM	–	–	Cc1cc(Nc2ncc(Cl)c(Nc3cn(C)nc3S(=O)(=O)C(C)C)n2)c(C(F)(F)F)cc1C1CCNCC1 [Final product 11]	–
25 nM	–	440 nM	–	–	Cc1cc(Nc2ncc(Cl)c(Nc3cn(C)nc3S(=O)(=O)C(C)C)n2)c(OC(C)C)cc1C1CN(S(C)(=O)=O)C1 [Final product 168]	–
18 nM	> 10000 nM	76 nM	> 10000 nM	> 10000 nM	CC(=O)N1CCN([C@H]2CC[C@H](c3cc(OC4CC4)c(Nc4ncc(Cl)c(Nc5cn(C)nc5S(=O)(=O)C(C)C)n4)cc3C)CC2)CC1 [Final product 204]	–
18 nM	–	93 nM	–	–	CC(C)S(=O)(=O)c1nn(C)cc1Nc1nc(Nc2ccc(C3CCN(C)CC3)cc2OC(F)(F)F)ncc1Cl [Final product 30]	–
17 nM	–	262 nM	–	–	Cc1cc(Nc2ncc(Cl)c(Nc3cn(C)nc3S(=O)(=O)C(C)C)n2)c(OCC2CC2)cc1C1CCNCC1 [Final product 12]	–
13 nM	–	188 nM	–	–	Cc1cc(Nc2ncc(Cl)c(Nc3cn(C)nc3S(=O)(=O)C(C)C)n2)c(OC(F)(F)F)cc1C1CCNCC1 [Final product 10]	–
12 nM	–	248 nM	–	–	Cc1cc(Nc2ncc(Cl)c(Nc3cn(C4CC4)nc3S(=O)(=O)C(C)C)n2)c(OC(C)C)cc1C1CCNCC1 [Final product 5]	–
12 nM	–	224 nM	–	–	CCC(C)S(=O)(=O)c1nn(C)cc1Nc1nc(Nc2cc(C)c(C3CCNCC3)cc2OC(C)C)ncc1Cl (stereo not shown) [Final product 7]	–
11 nM	> 10000 nM	59 nM	> 10000 nM	> 10000 nM	Cc1cc(Nc2ncc(Cl)c(Nc3cn(C)nc3S(=O)(=O)C(C)C)n2)c(OC2CC2)cc1C1CCN(S(C)(=O)=O)CC1 [Final product 167, 5-chloro-N^2-(2-cyclopropoxy-5-methyl-4-(1-methanesulfonyl-piperidin-4-yl)-phenyl)-N^4-(3-(isopropylsulfonyl)-1-methyl-1H-pyrazol-4-yl)pyrimidin-2,4-diamine]	–
11 nM	–	142 nM	–	–	Cc1cc(Nc2ncc(Cl)c(Nc3cn(C)nc3S(=O)(=O)C(C)C)n2)c(OC2CC2)cc1C1CCN(C2CC2)CC1 [Final product 157]	–
10 nM	–	562 nM	–	–	Cc1cc(Nc2ncc(Cl)c(Nc3cn(C)nc3S(=O)(=O)C(C)C)n2)c(OC(CF)CF)cc1C1CCNCC1 [Final product 8]	–
7 nM	–	58 nM	–	–	CC(C)S(=O)(=O)c1nn(C)cc1Nc1nc(Nc2ccc(C3CCNCC3)cc2OC2CC2)ncc1Cl [Final product 13]	–
6 nM	> 10000 nM	42 nM	> 10000 nM	> 10000 nM	Cc1cc(Nc2ncc(Cl)c(Nc3cn(C)nc3S(=O)(=O)C(C)C)n2)c(OC2CC2)cc1C1CCN(C(=O)CC#N)CC1 [Final product 166, 1-cyano acetyl-4-(4-(5-chloro-4-(3-(isopropylsulfonyl)-1-methyl-1H-pyrazol-4-amino)pyrimidin-2-amine)-5-cyclopropoxy-2-methylphenyl)piperidine]	–
4 nM	–	122 nM	–	–	Cc1cc(Nc2ncc(Cl)c(Nc3cn(C)nc3S(=O)(=O)C(C)C)n2)c(OC2CC2)cc1C1CCNCC1 [Final product 24]	–
3 nM	–	35 nM	–	–	Cc1cc(Nc2ncc(Cl)c(Nc3cn(C)nc3S(=O)(=O)C(C)C)n2)c(OC2CC2)cc1C1CCN(C(=O)CN(C)C)CC1 [Final product 165, 1-(2-dimethylamino)acetyl-4-(4-(5-chloro-4-(3-(isopropylsulfonyl)-1-methyl-1H-pyrazol-4-amino)pyrimidin-2-amino)-5-cyclopropoxy-2-methylphenyl)piperidine]	–
3 nM	–	33 nM	–	–	CC(C)S(=O)(=O)c1nn(C)cc1Nc1nc(Nc2ccc(C3CCN(C)C3)cc2OC2CC2)ncc1Cl (stereo not shown) [Final product 41]	–
